These results are taken from patent US20190152992A1, “BENZODIOXANE DERIVATIVES AND THEIR PHARMACEUTICAL USE” (Orion Corporation, priority 2016, published 2019).

Some results are limits rather than exact numbers.

One assay deals with T1, human alpha2A receptors (Homo sapiens, UniProt P08913).
T1 sequence (P08913 1-465): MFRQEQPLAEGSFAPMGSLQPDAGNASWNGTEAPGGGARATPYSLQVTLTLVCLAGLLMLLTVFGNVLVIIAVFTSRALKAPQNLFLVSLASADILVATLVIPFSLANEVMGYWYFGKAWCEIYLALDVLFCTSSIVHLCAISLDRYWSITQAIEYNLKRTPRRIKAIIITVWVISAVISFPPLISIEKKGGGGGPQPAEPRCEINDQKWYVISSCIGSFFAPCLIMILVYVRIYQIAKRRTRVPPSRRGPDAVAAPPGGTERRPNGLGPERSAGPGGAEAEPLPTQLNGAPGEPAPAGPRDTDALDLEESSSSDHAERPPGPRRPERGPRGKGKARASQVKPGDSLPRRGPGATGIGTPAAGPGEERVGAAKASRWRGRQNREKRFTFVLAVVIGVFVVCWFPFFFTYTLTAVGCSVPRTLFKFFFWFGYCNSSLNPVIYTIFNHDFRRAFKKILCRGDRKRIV
Description: cell-based.

A further assay concerns the target T2, human alpha2C receptors (Homo sapiens, UniProt P18825).
T2 sequence (P18825 1-462): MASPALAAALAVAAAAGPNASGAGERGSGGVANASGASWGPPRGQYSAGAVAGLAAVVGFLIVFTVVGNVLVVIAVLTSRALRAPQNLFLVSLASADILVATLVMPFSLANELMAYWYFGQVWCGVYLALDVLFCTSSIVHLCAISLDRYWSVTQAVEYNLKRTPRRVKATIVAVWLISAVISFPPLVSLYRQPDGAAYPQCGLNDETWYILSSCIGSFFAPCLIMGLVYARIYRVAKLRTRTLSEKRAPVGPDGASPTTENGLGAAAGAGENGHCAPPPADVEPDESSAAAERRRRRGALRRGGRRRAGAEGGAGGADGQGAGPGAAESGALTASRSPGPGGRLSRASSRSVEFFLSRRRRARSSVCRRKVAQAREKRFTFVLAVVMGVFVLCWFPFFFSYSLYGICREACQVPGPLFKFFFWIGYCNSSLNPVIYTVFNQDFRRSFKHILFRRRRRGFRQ
Put plainly: Determination of alpha2C antagonistic activity in vitro (FLIPR calcium assay). The conditions noted are these: for Kb: Alpha 2C Adrenaline Kb, Kb calculated from IC50 with the Cheng-Prusoff equation, adrenaline as agonist, CHO cells, human alpha2C.

A word on the IC50: it is the point on the concentration scale where inhibition reaches its midpoint. On human alpha2A receptors, `CC1CCN([C@H]2CCCN(C[C@H]3COc4ccccc4O3)C2)C1=O` (single isomer, unassigned; diastereomer 1) [example 98] came in with an IC50 of more than 10000 nM and a Kb of more than 449 nM. On human alpha2C receptors, the IC50 came to 9.26 nM and the Kb is 0.93 nM.
On human alpha2A receptors, `C[C@@H](c1ccccc1)N1C(=O)C(=O)N([C@H]2CCCN(C[C@H]3COc4ccccc4O3)C2)C1=O` [compound 133, 1-((S)-1-(((S)-2,3-Dihydrobenzo[b][1,4]dioxin-2-yl)methyl)-piperidin-3-yl)-3-((S)-1-phenylethyl)imidazolidine-2,4,5-trione] yielded an IC50 of 807 nM and a Kb of 36 nM. Moreover, at human alpha2C receptors, the IC50 is less than 0.01 nM and the Kb is less than 0.001 nM.
For `CC1(C)CC(=O)N([C@H]2CCCN(C[C@H]3COc4ccccc4O3)C2)C1` [example 1, 1-((S)-1-(((S)-2,3-Dihydrobenzo[b][1,4]dioxin-2-yl)methyl)piperidin-3-yl)-4,4-dimethylpyrrolidin-2-one], in that order: more than 10000 nM, more than 449 nM, 0.32 nM and 0.03 nM.
In the same order, the values of `O=C1NC(c2ccccc2)(c2ccccc2)CN1[C@H]1CCCN(C[C@H]2COc3ccccc3O2)C1` [example 2, 1-((S)-1-(((S)-2,3-Dihydrobenzo[b][1,4]dioxin-2-yl)methyl)piperidin-3-yl)-4,4-diphenylimidazolidin-2-one] are 1330 nM, 60 nM, less than 0.1 nM and less than 0.01 nM.
For `C[C@H]1C(=O)N([C@H]2CCCN(C[C@H]3COc4ccccc4O3)C2)C(=O)[C@@H]1C` [example 4, (3R,4R)-1-((S)-1-(((S)-2,3-Dihydrobenzo[b][1,4]dioxin-2-yl)methyl)piperidin-3-yl)-3,4-dimethylpyrrolidine-2,5-dione], in that order: more than 10000 nM, more than 449 nM, 1.77 nM and 0.18 nM.
On to `CCC1(CC)OC(=O)N([C@H]2CCCN(C[C@H]3COc4ccccc4O3)C2)C1=O` [example 5, 3-((S)-1-(((S)-2,3-Dihydrobenzo[b][1,4]dioxin-2-yl)methyl)piperidin-3-yl)-5,5-diethyloxazolidine-2,4-dione], for which, on human alpha2A receptors, the IC50 came out at 1300 nM and the Kb was 58 nM. For the same compound, on human alpha2C receptors, the IC50 was 0.13 nM and the Kb was 0.01 nM.
On human alpha2A receptors, `CC(C)N1C(=O)N([C@H]2CCCN(C[C@H]3COc4ccccc4O3)C2)C[C@H]1c1ccccc1` [example 6, (R)-1-((S)-1-(((S)-2,3-Dihydrobenzo[b][1,4]dioxin-2-yl)methyl)-piperidin-3-yl)-3-isopropyl-4-phenylimidazolidin-2-one] registered an IC50 of 9870 nM and a Kb of 443 nM. Moreover, at human alpha2C receptors, the IC50 was determined as 672 nM and the Kb is 67.7 nM.
On to `CC(C)N1C(=O)N([C@H]2CCCN(C[C@H]3COc4ccccc4O3)C2)C[C@@H]1c1ccccc1` [example 7, (S)-1-((S)-1-(((S)-2,3-Dihydrobenzo[b][1,4]dioxin-2-yl)methyl)piperidin-3-yl)-3-isopropyl-4-phenylimidazolidin-2-one], for which the half-maximal inhibitory concentration (IC50) was 1730 nM against human alpha2A receptors and less than 0.1 nM on human alpha2C receptors. Also, the Kb on human alpha2A receptors was 78 nM; on human alpha2C receptors, less than 0.01 nM.
On human alpha2A receptors, `O=C1c2cccnc2CN1[C@H]1CCCN(C[C@H]2COc3ccccc3O2)C1` [example 10, 6-((S)-1-(((S)-2,3-Dihydrobenzo[b][1,4]dioxin-2-yl)methyl)piperidin-3-yl)-6,7-dihydro-5H-pyrrolo[3,4-b]pyridin-5-one] displayed an IC50 of more than 10000 nM and a Kb of more than 449 nM. For the same compound, at human alpha2C receptors, the IC50 amounted to 3.78 nM and the Kb was 0.379 nM.
In the same order, the values of `O=C1c2cnccc2CN1[C@H]1CCCN(C[C@H]2COc3ccccc3O2)C1` [example 11, 2-((S)-1-(((S)-2,3-Dihydrobenzo[b][1,4]dioxin-2-yl)methyl)piperidin-3-yl)-1H-pyrrolo[3,4-c]pyridin-3(2H)-one] are more than 10000 nM, more than 449 nM, 127 nM and 12.8 nM.
As to `CSc1ncc2c(n1)C(=O)N([C@H]1CCCN(C[C@H]3COc4ccccc4O3)C1)C2` [example 12, 6-((S)-1-(((S)-2,3-Dihydrobenzo[b][1,4]dioxin-2-yl)methyl)piperidin-3-yl)-2-(methylthio)-5H-pyrrolo[3,4-d]pyrimidin-7(6H)-one], on human alpha2A receptors, the IC50 is more than 10000 nM and the Kb is more than 449 nM. On human alpha2C receptors, the IC50 worked out at 509 nM and the Kb is 51.2 nM.
For `O=C1c2ncsc2CN1[C@H]1CCCN(C[C@H]2COc3ccccc3O2)C1` [example 13, 5-((S)-1-(((S)-2,3-Dihydrobenzo[b][1,4]dioxin-2-yl)methyl)piperidin-3-yl)-5,6-dihydro-4H-pyrrolo[3,4-d]thiazol-4-one], in that order: more than 10000 nM, more than 449 nM, 22.4 nM and 2.26 nM.
For `C[C@]1(c2ccccc2)CCN([C@H]2CCCN(C[C@H]3COc4ccccc4O3)C2)C1=O` [example 14, (R)-1-((S)-1-(((S)-2,3-Dihydrobenzo[b][1,4]dioxin-2-yl)methyl)piperidin-3-yl)-3-methyl-3-phenylpyrrolidin-2-one], in that order: 5840 nM, 262 nM, 0.048 nM and 0.005 nM.
In the same order, the values of `C[C@@]1(c2ccccc2)CCN([C@H]2CCCN(C[C@H]3COc4ccccc4O3)C2)C1=O` [example 15, (S)-1-((S)-1-(((S)-2,3-Dihydrobenzo[b][1,4]dioxin-2-yl)methyl)-piperidin-3-yl)-3-methyl-3-phenylpyrrolidin-2-one] are more than 10000 nM, more than 449 nM, 363 nM and 36.6 nM.
At human alpha2A receptors, `CCN1CCN([C@H]2CCCN(C[C@H]3COc4ccccc4O3)C2)C1=O` [example 16, 1-((S)-1-(((S)-2,3-Dihydrobenzo[b][1,4]dioxin-2-yl)methyl)piperidin-3-yl)-3-ethylimidazolidin-2-one] yielded an IC50 of more than 10000 nM and a Kb of more than 449 nM. Besides, at human alpha2C receptors, the IC50 stood at 0.57 nM and the Kb was 0.06 nM.
On human alpha2A receptors, `CC(C)(C)C1CN([C@H]2CCCN(C[C@H]3COc4ccccc4O3)C2)C(=O)O1` (stereo partly drawn) [example 18, 5-tert-Butyl-3-((S)-1-(((S)-2,3-dihydrobenzo[b][1,4]dioxin-2-yl)methyl)piperidin-3-yl)oxazolidin-2-one] had an IC50 of 8510 nM and a Kb of 382 nM. Further, on human alpha2C receptors, the IC50 is 0.235 nM and the Kb was 0.024 nM.
For `CC(C)C1CN([C@H]2CCCN(C[C@H]3COc4ccccc4O3)C2)C(=O)O1` (stereo partly drawn) [example 19, 3-((S)-1-(((S)-2,3-Dihydrobenzo[b][1,4]dioxin-2-yl)methyl)piperidin-3-yl)-5-isopropyloxazolidin-2-one], in that order: more than 10000 nM, more than 449 nM, 7.65 nM and 0.771 nM.
For `CC(=O)NCC1CN([C@H]2CCCN(C[C@H]3COc4ccccc4O3)C2)C(=O)O1` (stereo partly drawn) [example 20, N-((3-((S)-1-(((S)-2,3-Dihydrobenzo[b][1,4]dioxin-2-yl)methyl)piperidin-3-yl)-2-oxooxazolidin-5-yl)methyl)acetamide], at human alpha2A receptors, the IC50 is more than 10000 nM and the Kb is more than 449 nM. On human alpha2C receptors, the IC50 was 6.91 nM and the Kb is 0.696 nM.
On human alpha2A receptors, `O=C1OC(c2ccc(F)cc2)CN1[C@H]1CCCN(C[C@H]2COc3ccccc3O2)C1` (stereo partly drawn) [example 21, 3-((S)-1-(((S)-2,3-Dihydrobenzo[b][1,4]dioxin-2-yl)methyl)piperidin-3-yl)-5-(4-fluorophenyl)oxazolidin-2-one] gave an IC50 of 1400 nM and a Kb of 63 nM. In addition, on human alpha2C receptors, the IC50 came to 1.9 nM and the Kb was 0.191 nM.
In the same order, the values of `CSc1ncc2c(n1)CN([C@H]1CCCN(C[C@H]3COc4ccccc4O3)C1)C2=O` [example 22, 6-((S)-1-(((S)-2,3-Dihydrobenzo[b][1,4]dioxin-2-yl)methyl)piperidin-3-yl)-2-(methylthio)-6,7-dihydro-5H-pyrrolo[3,4-d]pyrimidin-5-one] are more than 10000 nM, more than 449 nM, less than 0.01 nM and less than 0.001 nM.
